The values below come from patent US20260063641A1, “COMPOSITIONS AND METHODS FOR LABELING AND DETECTING BINDING PARTNERS” (UNIVERSITY OF UTAH RESEARCH FOUNDATION, priority 2022, published 2026).

This experiment has as its target T1, BRD4 (Homo sapiens, UniProt O60885).
T1 construct: host or cells: HEK293 transiently transfected with the BioTAC plasmid
In words: BioTAC proximity labeling, streptavidin pulldown and western blot for BRD4. In kind it is cell-based. Conditions: HEK293 transiently transfected with miniTurbo-FKBP12F36V, 100 μM biotin, 30 min time point. The method, then: Next bifunctional molecule guided-proximity labeling experiments were performed using validated reagents. HEK293 cells transiently transfected with mTurbo-FKBP12F36V were treated with 100 μM biotin, 1 μM bifunctional (+)-JQ1 recruiters, and variable concentrations of free (+)-JQ1 to off-compete the bifunctional molecule and rescue biotinylation. Biotinylated proteins were isolated from cell lysates via streptavidin bead pulldown and analyzed by western blot for BRD4, a primary target of (+)-JQ1.
0.6 million HEK293 cells were plated into wells containing 1 mL of complete media (DMEM, 10% FBS, 1% pen/strep) and incubated overnight. Cells were transiently transfected with 100 μL of OptiMEM media containing 1 μg of BioTAC plasmid and 3 μL of TransIT-2020 transfection reagent (Mirus, MIR5400) for 24 hr. Following a media change, cells were pre-treated with parental molecules or DMSO for 10 min, then treated with bifunctional compound for 10 min, and finally labeled in 100 μM biotin for the indicated time. Cells were washed twice with DPBS then harvested into 1.5 mL tubes. […] Protein concentration was determined by BCA assay (Thermo, 23225), then 100 ug protein was rotated overnight at 4° C. with 8 μL of streptavidin magnetic beads (Thermo, 88817) that had been prewashed twice in RIPA lysis buffer. […]
Background: A western blot detects proteins with antibodies after separation by electrophoresis.

Turning to `CC[C@H](C(=O)N1CCCC[C@H]1C(=O)O[C@H](CCc1ccc(OC)c(OC)c1)c1ccccc1OCC(=O)NCCOCCOCCOCCNC(=O)C[C@@H]1N=C(c2ccc(Cl)cc2)c2c(sc(C)c2C)-n2c(C)nnc21)c1cc(OC)c(OC)c(OC)c1` [Cpd1, (R)-1-(2-((17-((S)-4-(4-Chlorophenyl)-2,3,9-trimethyl-6H-thieno[3,2-f][1,2,4]triazolo[4,3-a][1,4]diazepin-6-yl)-2,16-dioxo-6,9,12-trioxa-3,15-diazaheptadecyl)oxy)phenyl)-3-(3,4-dimethoxyphenyl)propyl (S)-1-((S)-2-(3,4,5-trimethoxyphenyl)butanoyl)piperidine-2-carboxylate], the “BRD4 labeling and rescue (immunoblot of streptavidin pulldown)” value is “high BRD4-labeling and rescue”.
